Experimental data taken from US6013628A, “Method for treating conditions of the eye using polypeptides” (Regents of the University of Minnesota, priority 1995, dated 2000).
No end group written: not given here.

Tests used:
[1] = system: filtration surgery in rabbits; assay: Rabbit model of glaucoma filtration surgery failure; type: in vivo; set-up: IOP: unit not given here
Method: The rabbit model for filtration surgery is described by Bergstrom TJ, and Skuta GL. et al. in Arch. Ophthalmol, 109(12):1725-30, 1991. Two New Zealand white albino rabbits were used in the study. All animals were treated according to ARVO Animal Use Guidelines. All eyes were examined prior to initiation of a study and only clinically normal animals were used.
All the rabbits underwent preoperative examination and the intraocular pressure (IOP) was measured by pneumatonometry (PneumaTonometer, Digilab Model 30R, Cambridge, Mass.). The rabbits were anesthetized using an intramuscular injection of a mix of ketamine (30 mg/kg) and xylazine (5 mg/kg). A posterior lip sclerectomy was then performed on both eyes of each animal during the same period of anesthesia. […] The superotemporal conjuctiva and Tenon's capsule was incised near the fornix, and the dissection was performed anteriorly to the limbus. The anterior chamber was entered at the filtration site and a 1-mm by 3-mm block of limbal scleral tissue was excised from the posterior lip of the wound with the Kelly-Descemet punch. A peripheral iridectomy was then performed with Vannas scissors and curved jeweler's forceps. Hand-held thermal cautery was used as needed to provide hemostasis. The conjunctiva was closed with a running 10-0 nylon suture. The right eye received subconjunctival injection of the Hep-II dissolved in 0.15 ml distilled water at the end of the filtration surgery and the left eye, which served as the control, received an equal volume of distilled water. These and each of the subsequent injections were made into the area of the bleb. No prophylactic antibiotics, cycloplegic, or corticosteroid was applied to either eye intraoperatively or postoperatively. Postoperative evaluation included examination with a portable slit-lamp biomicroscope, evaluation of the filtering bleb and intraocular pressure measurements obtained with a pneumatonometer. At the end of the study the animals were sacrificed while under anesthesia with an intravenous injection of 1 cc of euthanasia solution.
The results of filtration surgery were evaluated by monitoring intraocular pressures and visual inspection of scarring and vascularization. The ability of ability of a synthetic polypeptide to prolong the effect of glaucoma treatment by filtration surgery was examined using the rabbit model. The right eye was treated with subconjunctival injection of 1 milligram of Hep-II dissolved in 0.15 ml of distilled water at the end of filtration surgery and every other day for a total of eight injections. The left eye served as the control and received an equal volume of distilled water on those days. The intraocular pressures (IOP) were checked using a pneumatonometer every day until day 9 and roughly every other day until day 28 (Table V and FIG. 27). […] Control eyes reached pre-operative pressures between about day 4 and day 9.

[2] = system: rabbit dermal fibroblasts; assay: Fibroblast-mediated collagen gel contraction (shrinkage) assay; type: cell-based
Excerpt: As indicated above, proliferative vitreoretinopathy is the result of the proliferation and migration of fibroblasts, retinal pigment epithelial cells, and glial cells, and their organization into vitreous strands and epiretinal membranes. The vitreous strands and epiretinal membranes can contract, resulting in traction retinal detachment. The ability of rabbit dermal fibroblasts to cause contraction was examined in the collagen gel shrinkage model, which serves as an in vitro model of proliferative vitreoretinopathy (see Verdoon et al., Arch. Ophthalmol., 104, 1216-1219 (1986)). The ability of synthetic polypeptides derived from ECM molecules to inhibit contraction in the collagen gel shrinkage model using rabbit fibroblasts was also examined.
Fifty thousand rabbit dermal fibroblasts were suspended in 250 μl of fibroblast assay medium and mixed with 250 μl of Vitrogen and dispensed into the wells of a 48-well plate. The cells were preincubated with the desired polypeptide concentration (25, 50, 100, or 200 ug/ml) for one hour at 37° C. before mixing with the Vitrogen. Gelling occurred within 20 minutes after transfer of the mix of cell suspension and Vitrogen into an incubator at 37° C. with 5% CO2. The gels were overlaid with 250 μl of growth medium. All conditions were tested in duplicate wells. After 24 hours, the gels were detached from the sides of the wells by sweeping with a 27-gauge needle inserted at the interface between the plastic well and the gel (FIGS. 6-8).
Contraction of collagen gels was quantitated by use of planimetry. The gels were observed daily over the seven day period following detachment for evidence of contraction. The plates were photographed at the end of the seven days to record the amount of contraction. The contraction was measured by recording the area of each gel in each well off the photograph using a computer scanner. The area of the gels with polypeptide was compared to the area of the gels without the polypeptide. Planimetry is a two-dimensional measurement. […] The planimetry measurements accordingly underestimate the degree of contraction that actually occurred.
The collagen gels were cast with or without the incorporation of 25 ug/ml of fibronectin. […] These controls using deactivated cells indicate that cell growth and proliferation are required to effect gel shrinkage.

## LAGSCLARFSTM [Hep-II, Leu-Ala-Gly-Ser-Cys-Leu-Ala-Arg-Phe-Ser-Thr-Met]
[1]; 1 milligram subconjunctival every other day, eight injections, 28 days, p<0.001
  IOP in treated eyes versus control eyes: lower than the control eyes
[1]; Rabbit #3 OD (1 milligram Hep-II subconjunctival, eight injections), Post op #1, Pre op 32, control OS 22
  IOP: 24
[1]; Rabbit #3 OD (1 milligram Hep-II subconjunctival, eight injections), Post op #2, Pre op 32, control OS 31
  IOP: 30
[1]; Rabbit #3 OD (1 milligram Hep-II subconjunctival, eight injections), Post op #3, Pre op 32, control OS 30
  IOP: 25
[1]; Rabbit #3 OD (1 milligram Hep-II subconjunctival, eight injections), Post op #4, Pre op 32, control OS 32
  IOP: 23
[1]; Rabbit #3 OD (1 milligram Hep-II subconjunctival, eight injections), Post op #5, Pre op 32, control OS 32
  IOP: 22
[1]; Rabbit #3 OD (1 milligram Hep-II subconjunctival, eight injections), Post op #6, Pre op 32, control OS 32
  IOP: 21
[1]; Rabbit #3 OD (1 milligram Hep-II subconjunctival, eight injections), Post op #7, Pre op 32, control OS 30
  IOP: 21
[1]; Rabbit #3 OD (1 milligram Hep-II subconjunctival, eight injections), Post op #8, Pre op 32, control OS 31
  IOP: 24
[1]; Rabbit #3 OD (1 milligram Hep-II subconjunctival, eight injections), Post op #9, Pre op 32, control OS 30
  IOP: 22
[1]; Rabbit #3 OD (1 milligram Hep-II subconjunctival, eight injections), Post op #13, Pre op 32, control OS 30
  IOP: 24
[1]; Rabbit #3 OD (1 milligram Hep-II subconjunctival, eight injections), Post op #14, Pre op 32, control OS 28
  IOP: 18
[1]; Rabbit #3 OD (1 milligram Hep-II subconjunctival, eight injections), Post op #15, Pre op 32, control OS 33
  IOP: 25
[1]; Rabbit #3 OD (1 milligram Hep-II subconjunctival, eight injections), Post op #16, Pre op 32, control OS 35
  IOP: 27
[1]; Rabbit #3 OD (1 milligram Hep-II subconjunctival, eight injections), Post op #18, Pre op 32, control OS 34
  IOP: 26
[1]; Rabbit #3 OD (1 milligram Hep-II subconjunctival, eight injections), Post op #20, Pre op 32, control OS 32
  IOP: 25
[1]; Rabbit #3 OD (1 milligram Hep-II subconjunctival, eight injections), Post op #21, Pre op 32, control OS 32
  IOP: 28
[1]; Rabbit #3 OD (1 milligram Hep-II subconjunctival, eight injections), Post op #24, Pre op 32, control OS 32
  IOP: 26
[1]; Rabbit #3 OD (1 milligram Hep-II subconjunctival, eight injections), Post op #27, Pre op 32, control OS 34
  IOP: 33
[1]; Rabbit #3 OD (1 milligram Hep-II subconjunctival, eight injections), Post op #28, Pre op 32, control OS 35
  IOP: 33
[1]; Rabbit #4 OD (1 milligram Hep-II subconjunctival, eight injections), Post op #1, Pre op 34, control OS 25
  IOP: 24
[1]; Rabbit #4 OD (1 milligram Hep-II subconjunctival, eight injections), Post op #2, Pre op 34, control OS 25
  IOP: 30
[1]; Rabbit #4 OD (1 milligram Hep-II subconjunctival, eight injections), Post op #3, Pre op 34, control OS 20
  IOP: 22
[1]; Rabbit #4 OD (1 milligram Hep-II subconjunctival, eight injections), Post op #4, Pre op 34, control OS 25
  IOP: 22
[1]; Rabbit #4 OD (1 milligram Hep-II subconjunctival, eight injections), Post op #5, Pre op 34, control OS 30
  IOP: 24
[1]; Rabbit #4 OD (1 milligram Hep-II subconjunctival, eight injections), Post op #6, Pre op 34, control OS 31
  IOP: 23
[1]; Rabbit #4 OD (1 milligram Hep-II subconjunctival, eight injections), Post op #7, Pre op 34, control OS 30
  IOP: 23
[1]; Rabbit #4 OD (1 milligram Hep-II subconjunctival, eight injections), Post op #8, Pre op 34, control OS 32
  IOP: 25
[1]; Rabbit #4 OD (1 milligram Hep-II subconjunctival, eight injections), Post op #9, Pre op 34, control OS 37
  IOP: 26
[1]; Rabbit #4 OD (1 milligram Hep-II subconjunctival, eight injections), Post op #13, Pre op 34, control OS 32
  IOP: 27
[1]; Rabbit #4 OD (1 milligram Hep-II subconjunctival, eight injections), Post op #14, Pre op 34, control OS 27
  IOP: 20
[1]; Rabbit #4 OD (1 milligram Hep-II subconjunctival, eight injections), Post op #15, Pre op 34, control OS 35
  IOP: 25
[1]; Rabbit #4 OD (1 milligram Hep-II subconjunctival, eight injections), Post op #16, Pre op 34, control OS 37
  IOP: 28
[1]; Rabbit #4 OD (1 milligram Hep-II subconjunctival, eight injections), Post op #18, Pre op 34, control OS 35
  IOP: 27
[1]; Rabbit #4 OD (1 milligram Hep-II subconjunctival, eight injections), Post op #20, Pre op 34, control OS 34
  IOP: 27
[1]; Rabbit #4 OD (1 milligram Hep-II subconjunctival, eight injections), Post op #21, Pre op 34, control OS 40
  IOP: 32
[1]; Rabbit #4 OD (1 milligram Hep-II subconjunctival, eight injections), Post op #24, Pre op 34, control OS 34
  IOP: 28
[1]; Rabbit #4 OD (1 milligram Hep-II subconjunctival, eight injections), Post op #27, Pre op 34, control OS 36
  IOP: 33
[1]; Rabbit #4 OD (1 milligram Hep-II subconjunctival, eight injections), Post op #28, Pre op 34, control OS 36
  IOP: 35
[1]; rabbits in vivo
  Effect on duration of filtration surgery effect: prolongs the effect of filtration surgery
[1]; treated eyes, control eyes until day 10
  Day until which blebs remained avascular (appeared functional): 18 days
[2]; 200 ug type IV collagen peptide, cells preincubated 1 hr, gel surface area by planimetry at day 7, no peptide 36%
  % Contraction: 3%
[2]; gels cast with and without fibronectin
  Effect on fibroblast-mediated collagen gel contraction: most potent inhibitory effects on contraction
